Measurements from US20220023221A1, “Oral Unit Dosage Form Of Ivermectin” (CHEMO RESEARCH, S.L., priority 2020, published 2022).

Tests used:
SARS-CoV-2 virus = settings: cited from earlier work
[1] = oral administration of the ivermectin tablets, 600 μg/kg once daily; patient with 100% viral load reduction
[2] = oral administration of the approved dose of 200 μg/kg; read-out: maximum plasma concentration (Cmax); cited from earlier work
SARS-CoV-2 = test: viral load by real-time (RT) PCR in the nasal mucosa of SARS-CoV-2 positive patients; type: in vivo
Text: The term “viral load” is well known to a person skilled in the art. The term “viral load” is a measure of the severity of an active viral infection, and can be determined by methods known to the person skilled in the art. As an Example, the viral load can be calculated by estimating the live amount of virus in an involved body fluid such as a number of RNA copies per milliliter of blood plasma. For example, the viral load can be determined by a real-time (RT) PCR test.
Ivermectin tablets as produced in Example 1 were administered for seven days in a daily dose of 600 μg/kg once daily to 9 patients (IVM) which have been tested to be positive for SARS-CoV-2, whereas 7 patients (control) which have been tested to be positive for SARS-CoV-2, received placebo tablets during said 7 days period.
The viral load was measured by a real-time (RT) PCR test on treatment days 1, 3, 5 and 7 in the nasal mucosa.

[3] = increasing doses from 150 μg/kg/day to 1600 μg/kg/day, onchoceriasis patients; cited from earlier work

Substance: ivermectin
- IC50 (SARS-CoV-2 virus; SARS-CoV-2 replication in vitro, read-out: concentration resulting in 50% inhibition (IC50)): 2 µM
- inhibition of replication of SARS-CoV-2 virus in vitro (SARS-CoV-2 virus; ivermectin at 5 μM): inhibit the replication of SARS-CoV-2 virus in vitro
- ivermectin (IVM) concentration in the blood, single patient [1]: 183 ng/mL
- Cmax [2]: 50 nM
- reduction in viral load (SARS-CoV-2; Day 7, 600 μg/kg once daily for seven days, 9 patients, nasal mucosa): more than 50%
- reduction of the viral load compared with control (SARS-CoV-2; each timepoint (days 1, 3, 5, 7), 600 μg/kg once daily, nasal mucosa): greater reduction of the viral load at each timepoint
- Decay rate of viral load, single patient (SARS-CoV-2; the patient with 183 ng/ml IVM concentration): 0.54 day⁻¹
- viral load reduction in the nasal mucosa, single patient (SARS-CoV-2; the patient with 183 ng/ml ivermectin concentration in the blood): 100%
- tolerability [3]: well tolerated
